Laboratory results taken from patent US7807462B2, “Method for producing a functional neuron” (University of Medicine and Dentistry of New Jersey, priority 2004, dated 2010).

Tests used:
[1] = test system: adult human mesenchymal stem cells (MSC); experiment: Microscopic examination of morphology of retinoic acid-treated MSC; type: cell-based; conditions: RA 30 μM
Experimental: By way of illustration, MSC were treated with all-trans-retinoic acid and examined microscopically at 400× magnification. The purpose was to observe morphological changes as the cells were exposed to a known differentiating agent.

[2] = test system: adult human mesenchymal stem cells (MSC); experiment: Whole-cell patch clamp electrophysiological recordings of RA-treated MSC; conditions: for postsynaptic current amplitude / postsynaptic current decay time / postsynaptic current frequency / postsynaptic current half rise time: voltage clamp
[3] = test system: adult human mesenchymal stem cells (MSC); experiment: Immunofluorescence for neural-specific markers in RA-treated MSC; type: cell-based
Experimental: It was subsequently determined whether the retinoic acid-treated MSC express neuron-specific proteins. Cells were labeled for MAP2, which predominantly labels the cell bodies and dendrites; Neurofilament to stain for cell bodies and axons; and nestin for changes in morphology to neuronal cells. Synaptophysin was also analyzed as it is an indicator of synaptic regions. Labeling with anti-MAP2 and anti-synaptophysin were performed at different times following retinoic acid treatment. Untreated MSCs stained dim with MAP2, but negative for synaptophysin. In contrast, retinoic acid-treated cells stained bright for MAP2 at each time point, i.e., day 6, day 9 and day 12 retinoic acid treatment. […] This pattern of synaptophysin increased up to day 12 of treatment. Patterns were similar in ten different experiments, each with MSC from a different bone marrow donor.
RA-treated MSCs were washed with PBS (pH 7.4) and incubated for 1 hour at room temperature with the following antibodies: rabbit anti-MAP2 and/or synaptophysin monoclonal antibody at final concentrations of 1/500 and 1/200 respectively. In other labeling studies, cells were incubated with anti-GFAP, anti-neurofilament or anti-nestin, each at 1/500 final concentration. Antibodies were diluted in 0.05% TWEEN™/PBS (PBT) for membrane permeabilization. Primary antibodies were developed with secondary FITC-goat anti-rabbit IgG and PE-rat anti-mouse κ, both at final concentrations of 1/500. Secondary antibodies were incubated for 45 minutes at room temperature in the dark. After labeling, cells were fixed with 0.4% paraformaldehyde and then covered with VECTASHIELD®. Slides were immediately examined on a 3-color immunofluorescence microscope (NIKON® Instruments Inc., Melvelle, N.Y.).

[4] = test system: MSC treated with retinoic acid for 6 days (functional neurons); experiment: Immunofluorescence/immunohistochemistry for substance P (SP) in RA-treated MSC; type: cell-based, human
Experimental: Administration or implantation of cultured neurons in a damaged tissue, in vivo, is influenced by the microenvironment. Thus, to determine whether a functional neuron could be influenced to express a particular neurotransmitter, expression of the preprotachykinin-I gene (PPT-I), which encodes the neurotransmitter substance P (SP), was analyzed. Regulation of the PPT-I gene has been studied in the context of inflammatory mediators that are presumed to be at the site of neural injury. […] Furthermore the receptor for IL-1 has been reported in neurons (Coti, et al. (2004) Frontier Biosci. 9:1433-1449). MSC, treated with retinoic acid for 6 days, were stimulated with 10 ng/mL of IL-1α for 16 hours and the cells studied for SP production by immunofluorescence using anti-SP. Treated cells were also labeled for synaptovesicle 2 to determine if SP is stored in synaptic vesicle. […] Retinoic acid-treated MSC were labeled with anti-SP and anti-synaptovesicle. The two labels were overlaid to gain insight as to the location of SP. […]
MSC on superfrost slides were treated with RA. […] The latter determined whether SP was stored in synaptic vesicles. SP and anti-synaptic vesicle protein 2 were detected with anti-rabbit IgG FITC and anti-mouse IgG1 κ PE, respectively. […]

[5] = test system: PPT-I gene expression in retinoic acid-treated MSC; experiment: In situ hybridization for β-PPT-I in RA-treated MSC; type: cell-based, human; conditions: cocktail of three antisense oligomers; three bone marrow donors
Experimental: Thus, it was determined whether the PPT-I gene was expressed in retinoic acid-treated MSC by in situ hybridization with a cocktail of three oligomers.
MSC were cultured as above on superfrost slides and then washed with 0.05% PBT. Cells were hybridized by incubation with 500 μL of hybridization buffer (Sigma, St. Louis, Mo.). After 2 hours, slides were incubated with 200 μL of hybridization buffer containing a cocktail (200 ng/mL) of denatured biotin-conjugated β-PPT-1-specific oligo probes based on GENBANK Accession No. U37529 (Table 1). Control slides were incubated with a mixture of similar oligos in the sense orientations. Slides were subsequently incubated overnight at 37° C. in a humid chamber. Slides were washed with SSC solution and hybrids detected by incubation for 1 hour at room temperature with FITC-streptavidin at 1/500 dilution. Slides were covered with PBS and immediately examined with an immunofluorescence microscope.

[6] = functional neurons in culture for 6 days

CC1=C(/C=C/C(C)=C/C=C/C(C)=C/C(=O)O)C(C)(C)CCC1 [retinoic acid, All-trans-retinoic acid]
morphology of treated MSC ([1]; day 4): neuron-like structures | morphology of treated MSC ([1]; day 7): cell bodies with long thin processes and growth cones | morphology of treated MSC ([1]; treated 1 day, 400× magnification): asymmetrical morphology | resting membrane potential ([2]; current clamp): −50 mV | spontaneous action potential firing frequency ([2]; current clamp): 20 s⁻¹ | action potential amplitude ([2]; current clamp, measured from resting membrane potential): 63.4±17.4 mV | action potential half-width ([2]; current clamp, n=768 events): 19.25 ± 0.73 ms | action potential rise time ([2]; current clamp, n=768 events): 3.39 ± 0.11 ms | fit of decay of postsynaptic currents [2, 6]: single exponential function | half rise time of some spontaneous post-synaptic currents [2, 6]: around 2 ms | fit of decay of postsynaptic currents ([2]; functional neurons in culture for 15 days): two exponentials | treated cells showing action potential by electrophysiology ([2]; n=25): one hundred | postsynaptic current amplitude ([2]; first set, n=171 events): 29.9±1.3 pA | postsynaptic current decay time ([2]; first set, n=171 events): 36.5 ± 1.0 ms | postsynaptic current frequency ([2]; first set, n=171 events): 2.49 s⁻¹ | postsynaptic current half rise time ([2]; first set, n=171 events): 12.96 ± 0.89 ms | postsynaptic current amplitude ([2]; second set, n=99 events): 6.1±0.2 pA | postsynaptic current decay time ([2]; second set, n=99 events): 31.3 ± 1.3 ms | postsynaptic current frequency ([2]; second set, n=99 events): 1.24 s⁻¹ | postsynaptic current half rise time ([2]; second set, n=99 events): 1.84 ± 0.13 ms | synaptophysin fluorescence ([3]; 6-day treatment): slight fluorescence | glial fibrillary acidic protein (GFAP) staining ([3]; all treated cells): negative | synaptophysin fluorescence ([3]; day 9 of treatment): brighter fluorescence | MAP2 staining ([3]; each time point: day 6, day 9 and day 12 of treatment, ten experiments): bright | percentage of functional neurons developed, by immunostaining for neurofilament, MAP2 and nestin ([3]; n=100): 80±10 percentage | synaptophysin fluorescence ([3]; up to day 12 of treatment): increased | fluorescence for SP in unstimulated treated MSC ([4]; no IL-1α stimulation): dim fluorescence | PPT-I in situ hybridization fluorescence in cell bodies of neurons [5]: bright fluorescence

B1: IL-1α: Recombinant human IL-1α (rhIL-1α) provided by Hoffman LaRoche (protein, UniProt P01583 113-271, looked up)
Interleukin-1 alpha: SAPFSFLSNVKYNFMRIIKYEFILNDALNQSIIRANDQYLTAAALHNLDEAVKFDMGAYKSSKDDAKITVILRISKTQLYVTAQDEDQPVLLKEMPEIPKTITGSETNLLFFWETHGTKNYFTSVAHPNLFIATKQDYWVCLAGGPPSITDFQILENQA
fluorescence intensity for SP ([4]; MSC treated with retinoic acid 6 days, stimulated with 10 ng/mL IL-1α for 16 hours, six experiments): bright fluorescence intensity
